Experimental data taken from publication PMC9798004 (Frontiers in Psychiatry, 2022).
Entries after “also recorded” stand apart in the source; their conditions may differ.

What was measured:
Test in all cases: PathHunter β-arrestin assay
Type in all cases: cell-based
[1] = molecular target: T1, CCR4 (Homo sapiens, UniProt P51679); conditions: antagonist mode vs EC80 of control agonist, 10-point curve
T1 sequence (P51679 1-360): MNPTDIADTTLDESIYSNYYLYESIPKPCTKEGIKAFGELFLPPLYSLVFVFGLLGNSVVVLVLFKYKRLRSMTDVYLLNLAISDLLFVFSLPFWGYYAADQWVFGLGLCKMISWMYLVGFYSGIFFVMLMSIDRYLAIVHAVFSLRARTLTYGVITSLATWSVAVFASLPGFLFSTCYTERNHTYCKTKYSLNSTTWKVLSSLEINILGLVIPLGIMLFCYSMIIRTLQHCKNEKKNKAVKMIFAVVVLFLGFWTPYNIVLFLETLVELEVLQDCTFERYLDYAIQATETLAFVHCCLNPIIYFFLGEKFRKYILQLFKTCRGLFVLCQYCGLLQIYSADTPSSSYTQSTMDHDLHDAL

[2] = molecular target: T2, CCR6 (Homo sapiens, UniProt P51684); conditions: antagonist mode, up to 30 μM
T2 construct: purchased Eurofins DiscoverX (PathHunter gpcrMAX)
T2 sequence (P51684 1-374): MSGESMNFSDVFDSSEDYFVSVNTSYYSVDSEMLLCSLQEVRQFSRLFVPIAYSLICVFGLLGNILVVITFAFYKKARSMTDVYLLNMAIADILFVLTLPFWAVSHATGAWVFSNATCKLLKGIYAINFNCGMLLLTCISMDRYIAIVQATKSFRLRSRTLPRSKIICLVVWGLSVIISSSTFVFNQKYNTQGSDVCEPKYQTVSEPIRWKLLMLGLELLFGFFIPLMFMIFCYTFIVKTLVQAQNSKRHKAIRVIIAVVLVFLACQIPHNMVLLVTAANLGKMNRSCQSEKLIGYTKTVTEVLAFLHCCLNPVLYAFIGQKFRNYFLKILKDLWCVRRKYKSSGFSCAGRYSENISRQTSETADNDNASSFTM

[3] = molecular target: CCR8 (Homo sapiens, UniProt P51685); conditions: antagonist mode vs EC80 of control agonist, 10-point curve
Chain of CCR8 (P51685 whole entry): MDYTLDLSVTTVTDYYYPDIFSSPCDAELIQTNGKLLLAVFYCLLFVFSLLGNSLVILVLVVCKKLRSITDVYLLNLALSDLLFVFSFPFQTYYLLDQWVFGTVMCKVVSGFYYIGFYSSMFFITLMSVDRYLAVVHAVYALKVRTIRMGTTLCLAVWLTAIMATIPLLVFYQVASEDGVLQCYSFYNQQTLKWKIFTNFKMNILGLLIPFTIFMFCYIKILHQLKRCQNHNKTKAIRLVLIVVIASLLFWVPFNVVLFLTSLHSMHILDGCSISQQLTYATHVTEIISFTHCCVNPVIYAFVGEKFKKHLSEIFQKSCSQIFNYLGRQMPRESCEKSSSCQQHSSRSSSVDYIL

[4] = molecular target: T3, CCR9 (Homo sapiens, UniProt P51686); conditions: antagonist mode, up to 30 μM
T3 construct: purchased Eurofins DiscoverX (PathHunter gpcrMAX)
T3 sequence (P51686 1-369): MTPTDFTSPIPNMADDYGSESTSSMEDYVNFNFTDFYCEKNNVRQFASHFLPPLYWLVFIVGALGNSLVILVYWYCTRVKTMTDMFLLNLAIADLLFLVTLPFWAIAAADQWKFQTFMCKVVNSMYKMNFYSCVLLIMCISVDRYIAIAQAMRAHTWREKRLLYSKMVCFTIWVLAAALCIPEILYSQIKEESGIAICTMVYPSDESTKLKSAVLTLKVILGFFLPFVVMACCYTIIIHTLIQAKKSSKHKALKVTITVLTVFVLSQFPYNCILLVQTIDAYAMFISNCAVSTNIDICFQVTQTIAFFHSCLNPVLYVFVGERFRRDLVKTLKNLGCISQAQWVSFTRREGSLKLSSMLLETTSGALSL

[5] = molecular target: T4, GLP2R (Homo sapiens, UniProt O95838); conditions: antagonist mode vs EC80 of control agonist, 10-point curve
T4 sequence (O95838 1-553): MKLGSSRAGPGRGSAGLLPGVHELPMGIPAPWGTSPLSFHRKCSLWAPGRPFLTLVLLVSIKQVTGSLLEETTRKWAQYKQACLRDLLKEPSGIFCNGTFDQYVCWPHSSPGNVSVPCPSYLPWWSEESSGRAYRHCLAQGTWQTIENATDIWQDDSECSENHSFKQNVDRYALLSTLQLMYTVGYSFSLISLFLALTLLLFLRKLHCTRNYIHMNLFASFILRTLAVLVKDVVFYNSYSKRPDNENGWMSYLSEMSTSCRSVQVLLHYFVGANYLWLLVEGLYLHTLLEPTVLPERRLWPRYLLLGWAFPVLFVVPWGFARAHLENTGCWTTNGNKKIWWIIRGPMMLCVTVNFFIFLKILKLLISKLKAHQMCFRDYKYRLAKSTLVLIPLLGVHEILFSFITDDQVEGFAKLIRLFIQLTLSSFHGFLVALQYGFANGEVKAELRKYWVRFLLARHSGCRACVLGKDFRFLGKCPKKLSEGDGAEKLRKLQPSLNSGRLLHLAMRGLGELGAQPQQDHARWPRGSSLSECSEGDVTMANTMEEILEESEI
In short: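 RC50 values derive from four-parameter fits of normalized responses across ten concentrations (1.5–30 μM), run in technical replicate. In antagonist mode, cells received the appropriate agonist at its EC80.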

[6] = molecular target: T5, HCRTR1 (Homo sapiens, UniProt O43613)
T5 sequence (O43613 1-425): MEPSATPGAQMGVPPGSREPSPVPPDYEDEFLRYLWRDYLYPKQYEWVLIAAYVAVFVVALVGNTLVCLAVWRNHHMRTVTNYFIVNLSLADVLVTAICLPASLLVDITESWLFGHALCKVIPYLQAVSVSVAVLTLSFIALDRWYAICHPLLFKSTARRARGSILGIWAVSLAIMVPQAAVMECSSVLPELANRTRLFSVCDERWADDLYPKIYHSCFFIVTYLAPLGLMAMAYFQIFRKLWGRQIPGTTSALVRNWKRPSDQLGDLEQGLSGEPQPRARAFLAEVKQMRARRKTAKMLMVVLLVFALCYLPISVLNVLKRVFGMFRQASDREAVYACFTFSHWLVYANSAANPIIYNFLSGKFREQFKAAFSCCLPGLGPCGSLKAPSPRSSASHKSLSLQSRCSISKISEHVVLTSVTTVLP

[7] = molecular target: PTGER4 (Homo sapiens, UniProt P35408); conditions: antagonist mode vs EC80 of control agonist, 10-point curve
Chain of PTGER4 (P35408 whole entry): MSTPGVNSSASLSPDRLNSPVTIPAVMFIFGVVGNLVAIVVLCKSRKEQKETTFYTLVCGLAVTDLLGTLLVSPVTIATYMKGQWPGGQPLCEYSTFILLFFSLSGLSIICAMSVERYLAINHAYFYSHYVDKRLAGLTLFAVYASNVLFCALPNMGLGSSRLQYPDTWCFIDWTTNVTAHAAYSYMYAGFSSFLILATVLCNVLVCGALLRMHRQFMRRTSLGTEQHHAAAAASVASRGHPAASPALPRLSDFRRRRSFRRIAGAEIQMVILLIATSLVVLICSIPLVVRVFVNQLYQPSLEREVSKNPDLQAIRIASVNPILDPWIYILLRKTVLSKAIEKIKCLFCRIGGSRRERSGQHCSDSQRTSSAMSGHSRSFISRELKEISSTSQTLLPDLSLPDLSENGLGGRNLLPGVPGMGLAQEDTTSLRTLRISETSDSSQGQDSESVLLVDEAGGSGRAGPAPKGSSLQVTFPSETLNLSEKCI

[8] = molecular target: HCRTR2 (Homo sapiens, UniProt O43614); conditions: antagonist mode vs EC80 of control agonist, 10-point curve
Chain of HCRTR2 (O43614 whole entry): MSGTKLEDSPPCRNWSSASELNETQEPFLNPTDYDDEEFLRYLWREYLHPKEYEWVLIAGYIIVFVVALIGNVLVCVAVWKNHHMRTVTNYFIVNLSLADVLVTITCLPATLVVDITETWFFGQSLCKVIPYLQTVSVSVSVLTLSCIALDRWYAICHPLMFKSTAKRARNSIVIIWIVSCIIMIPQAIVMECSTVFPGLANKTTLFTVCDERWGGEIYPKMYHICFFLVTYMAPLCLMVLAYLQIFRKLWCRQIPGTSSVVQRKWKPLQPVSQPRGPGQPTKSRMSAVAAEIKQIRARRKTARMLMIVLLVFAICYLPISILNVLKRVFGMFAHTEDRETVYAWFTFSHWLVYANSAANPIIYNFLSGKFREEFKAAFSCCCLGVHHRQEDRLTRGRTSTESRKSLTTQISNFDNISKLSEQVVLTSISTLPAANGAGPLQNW

[9] = molecular target: OXTR (Homo sapiens, UniProt P30559); conditions: antagonist mode vs EC80 of control agonist, 10-point curve
Chain of OXTR (P30559 whole entry): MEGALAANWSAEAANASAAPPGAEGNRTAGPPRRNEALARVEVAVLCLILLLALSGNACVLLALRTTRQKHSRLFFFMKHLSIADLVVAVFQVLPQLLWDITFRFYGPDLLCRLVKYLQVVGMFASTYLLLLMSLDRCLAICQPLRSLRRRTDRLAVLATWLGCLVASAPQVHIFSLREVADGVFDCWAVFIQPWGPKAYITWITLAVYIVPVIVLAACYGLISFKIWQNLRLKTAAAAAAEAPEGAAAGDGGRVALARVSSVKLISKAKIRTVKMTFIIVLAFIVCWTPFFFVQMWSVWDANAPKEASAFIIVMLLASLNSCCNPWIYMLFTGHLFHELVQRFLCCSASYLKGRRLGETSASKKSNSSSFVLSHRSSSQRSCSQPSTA

COC(=O)[C@@H](NC(=O)c1nn(Cc2ccc(F)cc2)c2ccccc12)C(C)C [AMB-FUBINACA]
IC50 [1]: 11.5 µM | inhibitory activity in concentration-response [2]: Activity was only observed at the highest concentration (30 μM) | IC50 [3]: 7.99 µM | inhibitory activity in concentration-response [4]: Activity was only observed at the highest concentration (30 μM); also recorded: only inhibited at the highest 30 μM concentration | IC50 [5]: 13.1 µM | IC50 ([6]; antagonist mode vs EC80 of control agonist, 10-point curve): 8.59 µM | maximum inhibition ([6]; antagonist mode, concentration-response up to 30 μM): 73.00% | IC50 [7]: 3.13 µM | IC50 [8]: 12.7 µM | IC50 [9]: 12.8 µM
